Series [1] concerns the target T1, Organic cation/carnitine transporter 2 (Homo sapiens, UniProt O76082).
T1 sequence (O76082 whole entry): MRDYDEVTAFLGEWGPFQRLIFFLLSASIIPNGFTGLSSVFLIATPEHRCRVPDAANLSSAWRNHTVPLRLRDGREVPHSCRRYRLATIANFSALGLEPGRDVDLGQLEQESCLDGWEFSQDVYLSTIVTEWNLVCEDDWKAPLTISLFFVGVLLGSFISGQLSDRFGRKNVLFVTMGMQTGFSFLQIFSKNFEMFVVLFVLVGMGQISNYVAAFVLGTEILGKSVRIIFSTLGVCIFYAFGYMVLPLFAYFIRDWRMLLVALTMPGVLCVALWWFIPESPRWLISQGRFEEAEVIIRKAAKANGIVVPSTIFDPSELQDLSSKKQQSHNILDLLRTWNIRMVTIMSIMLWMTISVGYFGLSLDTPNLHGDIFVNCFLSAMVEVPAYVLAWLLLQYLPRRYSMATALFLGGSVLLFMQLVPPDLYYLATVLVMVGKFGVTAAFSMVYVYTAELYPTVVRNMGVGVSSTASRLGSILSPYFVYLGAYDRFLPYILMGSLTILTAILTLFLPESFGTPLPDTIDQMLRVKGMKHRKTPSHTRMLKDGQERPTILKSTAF
In words: Inhibition of OCTN2-mediated [14C]carnitine uptake in human OCTN2 expressing HEK293/PDZK1 cells by scintillation counting. The series is classed as cell-based.

Series [2] has as its target T2, Solute carrier organic anion transporter family member 1B1 (Homo sapiens, UniProt Q9Y6L6).
T2 sequence (Q9Y6L6 whole entry): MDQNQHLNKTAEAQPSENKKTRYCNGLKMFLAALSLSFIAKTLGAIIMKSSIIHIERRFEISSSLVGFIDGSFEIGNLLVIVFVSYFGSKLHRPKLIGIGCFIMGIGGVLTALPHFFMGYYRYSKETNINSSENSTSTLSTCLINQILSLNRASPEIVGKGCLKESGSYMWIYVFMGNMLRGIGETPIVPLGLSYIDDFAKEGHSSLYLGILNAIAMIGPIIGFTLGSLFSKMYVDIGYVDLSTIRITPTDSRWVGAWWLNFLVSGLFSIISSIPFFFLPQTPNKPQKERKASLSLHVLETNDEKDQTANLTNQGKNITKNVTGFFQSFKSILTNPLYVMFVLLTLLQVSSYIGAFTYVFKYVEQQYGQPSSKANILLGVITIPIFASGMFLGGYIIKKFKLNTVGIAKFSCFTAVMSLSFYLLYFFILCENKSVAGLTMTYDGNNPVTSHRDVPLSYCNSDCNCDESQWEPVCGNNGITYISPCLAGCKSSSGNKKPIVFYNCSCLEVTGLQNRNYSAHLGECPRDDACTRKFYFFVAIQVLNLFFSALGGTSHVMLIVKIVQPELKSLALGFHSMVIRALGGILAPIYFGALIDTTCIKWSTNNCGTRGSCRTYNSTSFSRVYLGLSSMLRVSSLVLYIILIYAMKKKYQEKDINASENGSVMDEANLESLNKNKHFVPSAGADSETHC
In words: Inhibition of OATP1B1-mediated [3H]estrone-3-sulfate uptake in human OATP1B1 expressing HEK293/PDZK1 cells by scintillation counting. Conditions: human, hek293/pdzk1; call rule not given here. It counts as ADME, cell-based.

Series [3] has as its target T3, Solute carrier organic anion transporter family member 1B3 (Homo sapiens, UniProt Q9NPD5).
T3 sequence (Q9NPD5 whole entry): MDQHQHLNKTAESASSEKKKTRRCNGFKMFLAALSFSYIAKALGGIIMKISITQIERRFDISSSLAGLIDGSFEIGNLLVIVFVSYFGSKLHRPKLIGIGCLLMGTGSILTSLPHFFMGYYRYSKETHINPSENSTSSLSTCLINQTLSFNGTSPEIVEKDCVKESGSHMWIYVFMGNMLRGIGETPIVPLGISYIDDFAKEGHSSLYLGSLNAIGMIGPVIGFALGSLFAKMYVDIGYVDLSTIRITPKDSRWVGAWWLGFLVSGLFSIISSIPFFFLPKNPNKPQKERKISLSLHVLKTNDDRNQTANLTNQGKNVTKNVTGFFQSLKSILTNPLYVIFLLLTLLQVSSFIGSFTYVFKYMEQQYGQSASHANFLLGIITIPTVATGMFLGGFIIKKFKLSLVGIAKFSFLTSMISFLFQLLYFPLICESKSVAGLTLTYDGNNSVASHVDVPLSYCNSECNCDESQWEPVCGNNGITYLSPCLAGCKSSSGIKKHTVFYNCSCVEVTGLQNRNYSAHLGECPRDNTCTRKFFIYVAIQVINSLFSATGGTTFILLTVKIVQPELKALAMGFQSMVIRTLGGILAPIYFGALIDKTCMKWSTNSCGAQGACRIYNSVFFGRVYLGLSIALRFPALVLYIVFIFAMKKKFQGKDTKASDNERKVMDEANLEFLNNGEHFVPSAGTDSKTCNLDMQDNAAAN
In words: Inhibition of OATP1B3-mediated [3H]estradiol 17beta-glucuronide uptake in human OATP1B3 expressing HEK293/PDZK1 cells by scintillation counting. Conditions: human, hek293/pdzk1. It counts as ADME, cell-based.

Series [4] has as its target T4, Solute carrier organic anion transporter family member 2B1 (Homo sapiens, UniProt O94956).
T4 sequence (O94956 whole entry): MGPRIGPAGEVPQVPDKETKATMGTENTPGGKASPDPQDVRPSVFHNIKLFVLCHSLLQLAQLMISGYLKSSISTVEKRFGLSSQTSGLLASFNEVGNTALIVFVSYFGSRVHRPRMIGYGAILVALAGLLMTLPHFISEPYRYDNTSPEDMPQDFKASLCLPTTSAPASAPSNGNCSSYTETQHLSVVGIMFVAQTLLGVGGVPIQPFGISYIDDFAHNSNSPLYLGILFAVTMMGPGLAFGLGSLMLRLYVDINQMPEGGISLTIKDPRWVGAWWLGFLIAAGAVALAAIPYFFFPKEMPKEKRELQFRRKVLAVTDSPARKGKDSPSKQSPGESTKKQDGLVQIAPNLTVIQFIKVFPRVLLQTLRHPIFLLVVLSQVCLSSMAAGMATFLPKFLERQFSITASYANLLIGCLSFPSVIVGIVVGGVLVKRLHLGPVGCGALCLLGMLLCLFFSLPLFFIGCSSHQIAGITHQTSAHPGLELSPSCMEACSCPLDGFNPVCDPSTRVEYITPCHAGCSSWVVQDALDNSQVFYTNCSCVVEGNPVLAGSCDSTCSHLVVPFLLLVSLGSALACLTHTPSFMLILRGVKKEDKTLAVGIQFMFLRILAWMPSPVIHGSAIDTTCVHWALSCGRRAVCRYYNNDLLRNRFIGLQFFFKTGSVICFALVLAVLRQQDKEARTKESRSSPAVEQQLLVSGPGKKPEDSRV
In words: Inhibition of OATP2B1-mediated [3H]estrone-3-sulfate uptake in human OATP2B1 expressing HEK293/PDZK1 cells by scintillation counting. The series is classed as ADME, cell-based. Conditions: human, hek293/pdzk1.

A further series relates to Liver. In words: Tissue uptake clearance in mouse liver at […] mg/kg, iv in presence of 30 umol/kg TPeA. The series is classed as ADME, organism-based. Conditions: in vivo.
Another series relates to Kidney. Kind of series: Tissue uptake clearance in mouse kidney at […] mg/kg, iv in presence of 30 umol/kg TPeA. Conditions: in vivo. It counts as ADME, organism-based.
The target of series [5] is T5, Solute carrier family 22 member 1 (Homo sapiens, UniProt O15245).
T5 sequence (O15245 whole entry): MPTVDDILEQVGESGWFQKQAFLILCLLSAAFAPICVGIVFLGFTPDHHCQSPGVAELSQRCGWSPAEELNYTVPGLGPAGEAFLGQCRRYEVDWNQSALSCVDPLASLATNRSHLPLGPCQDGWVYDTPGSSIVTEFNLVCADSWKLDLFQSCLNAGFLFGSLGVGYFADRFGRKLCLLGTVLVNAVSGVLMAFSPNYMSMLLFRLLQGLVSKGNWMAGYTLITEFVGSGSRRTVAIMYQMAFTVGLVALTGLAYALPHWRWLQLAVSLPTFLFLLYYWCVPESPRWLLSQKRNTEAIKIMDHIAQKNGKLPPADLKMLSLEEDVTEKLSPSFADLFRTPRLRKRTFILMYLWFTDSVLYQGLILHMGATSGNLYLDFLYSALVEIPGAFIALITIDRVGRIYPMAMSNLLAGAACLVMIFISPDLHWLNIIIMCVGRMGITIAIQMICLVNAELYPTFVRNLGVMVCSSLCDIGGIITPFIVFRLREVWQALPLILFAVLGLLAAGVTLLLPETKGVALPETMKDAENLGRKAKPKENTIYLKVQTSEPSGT
In words: Inhibition of OCT1-mediated [14C]tetraethylammonium uptake in human OCT1 expressing HEK293/PDZK1 cells by scintillation counting. It counts as ADME, cell-based. Conditions: human, hek293/pdzk1.

For the molecule `C[N+](C)(C)CC(O)CC(=O)[O-]` (configuration not stated) [CARNITINE], the “inhibition (INH)” value in series [1] is “Active”.

For the molecule `O=C1OC(c2ccc(O)c(S(=O)(=O)O)c2)(c2ccc(O)c(S(=O)(=O)O)c2)c2c(Br)c(Br)c(Br)c(Br)c21` [SULFOBROMOPHTHALEIN], the “inhibition (INH)” value in series [2], in series [3] and in series [4] was “Active” throughout.

For the molecule `CN(C)C(=N)N=C(N)N` [METFORMIN], the Drug uptake result with Liver and in the series with Kidney was “Not Active” throughout.

Regarding `CC[N+](CC)(CC)CC` [TETRYLAMMONIUM], in series [5], the “inhibition (INH)” value is given as “Active”.
